Assay results from ChEMBL document CHEMBL5465560, “Selectivity Literature for EUbOPEN Chemogenomic Library” (2024).
Blank lines part the entries; values can stand above or below the compound they belong to.

How the values were obtained:
[1] = biological target: Phosphatidylinositol 4-phosphate 5-kinase type-1 alpha (Homo sapiens) (UniProt Q99755); conditions: at 10 µM
[2] = biological target: Dual specificity tyrosine-phosphorylation-regulated kinase 1B (Homo sapiens, UniProt Q9Y463); assay: Selectivity interaction (KinomeScan (DiscoverX)) EUB0001079a DYRK1B; conditions: at 1 µM
[3] = biological target: Serine/threonine-protein kinase PLK3 (Homo sapiens, UniProt Q9H4B4); assay: Selectivity interaction (SelectScreen profiling (Invitrogen)) EUB0000607a PLK3; conditions: at 2 µM
[4] = biological target: T1, Mitogen-activated protein kinase kinase kinase kinase 3 (Homo sapiens) (UniProt Q8IVH8); assay: Selectivity interaction (KinomeScan (DiscoverX)) EUB0001619a MAP4K3; conditions: at 1 µM
T1 sequence (whole entry): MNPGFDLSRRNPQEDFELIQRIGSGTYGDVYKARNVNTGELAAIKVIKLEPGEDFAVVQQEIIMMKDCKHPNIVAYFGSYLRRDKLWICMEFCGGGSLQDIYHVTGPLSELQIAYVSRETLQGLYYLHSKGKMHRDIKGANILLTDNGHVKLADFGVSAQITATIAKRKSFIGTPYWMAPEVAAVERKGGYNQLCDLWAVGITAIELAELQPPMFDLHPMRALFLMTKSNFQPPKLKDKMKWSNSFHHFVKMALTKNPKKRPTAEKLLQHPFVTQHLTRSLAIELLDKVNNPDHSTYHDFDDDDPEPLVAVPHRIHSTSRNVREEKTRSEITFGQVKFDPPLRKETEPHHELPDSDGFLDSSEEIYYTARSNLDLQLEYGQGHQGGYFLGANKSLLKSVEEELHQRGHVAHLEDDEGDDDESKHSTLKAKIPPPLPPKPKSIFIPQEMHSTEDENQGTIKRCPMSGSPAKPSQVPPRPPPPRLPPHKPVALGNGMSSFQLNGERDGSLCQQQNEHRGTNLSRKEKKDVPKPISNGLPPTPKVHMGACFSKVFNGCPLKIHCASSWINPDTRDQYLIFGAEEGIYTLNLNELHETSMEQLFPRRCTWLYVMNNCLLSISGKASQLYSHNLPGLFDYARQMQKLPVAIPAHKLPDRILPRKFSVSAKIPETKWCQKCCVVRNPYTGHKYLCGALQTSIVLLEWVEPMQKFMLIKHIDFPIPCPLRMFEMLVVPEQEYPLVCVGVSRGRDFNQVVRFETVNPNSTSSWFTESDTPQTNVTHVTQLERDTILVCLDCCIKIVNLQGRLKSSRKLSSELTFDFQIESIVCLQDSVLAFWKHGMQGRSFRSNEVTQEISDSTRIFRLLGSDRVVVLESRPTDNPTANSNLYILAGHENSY

[5] = biological target: Cyclin-dependent kinase 11B (Homo sapiens) (UniProt P21127); assay: Selectivity interaction (KinomeScan (DiscoverX)) EUB0000045b CDK11B
[6] = biological target: Tyrosine-protein kinase Fyn (Homo sapiens) (UniProt P06241); assay: Selectivity interaction (Upstate Kinase Profiler service (Millipore)) EUB0000056c FYN; conditions: at 1 µM
[7] = biological target: T2, MAP kinase-activated protein kinase 5 (Homo sapiens) (UniProt Q8IW41); assay: Selectivity interaction (Upstate Kinase Profiler service (Millipore)) EUB0000056c MAPKAPK5; conditions: at 1 µM
T2 sequence (whole entry): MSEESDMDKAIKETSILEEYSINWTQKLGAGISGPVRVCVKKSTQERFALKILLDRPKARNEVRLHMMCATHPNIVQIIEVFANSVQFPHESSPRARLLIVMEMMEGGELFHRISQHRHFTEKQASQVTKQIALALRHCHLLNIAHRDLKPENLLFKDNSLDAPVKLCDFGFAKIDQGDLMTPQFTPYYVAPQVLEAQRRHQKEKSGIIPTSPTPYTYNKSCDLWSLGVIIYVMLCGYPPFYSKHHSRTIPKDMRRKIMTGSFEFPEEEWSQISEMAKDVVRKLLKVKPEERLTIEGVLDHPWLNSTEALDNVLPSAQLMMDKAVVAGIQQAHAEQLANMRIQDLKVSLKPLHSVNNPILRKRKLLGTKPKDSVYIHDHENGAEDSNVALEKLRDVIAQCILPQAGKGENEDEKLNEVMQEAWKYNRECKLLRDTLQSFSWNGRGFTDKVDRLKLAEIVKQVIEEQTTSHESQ

[8] = biological target: Histone acetyltransferase p300 (Homo sapiens) (UniProt Q09472); assay: Selectivity interaction (Bromodomain panel (DSF asssay)) EUB0000270b EP300
[9] = biological target: T3, Ephrin type-B receptor 2 (Homo sapiens) (UniProt P29323); assay: Selectivity interaction (KinomeScan (DiscoverX)) EUB0000229b EPHB2; conditions: at 10 µM
T3 sequence (whole entry): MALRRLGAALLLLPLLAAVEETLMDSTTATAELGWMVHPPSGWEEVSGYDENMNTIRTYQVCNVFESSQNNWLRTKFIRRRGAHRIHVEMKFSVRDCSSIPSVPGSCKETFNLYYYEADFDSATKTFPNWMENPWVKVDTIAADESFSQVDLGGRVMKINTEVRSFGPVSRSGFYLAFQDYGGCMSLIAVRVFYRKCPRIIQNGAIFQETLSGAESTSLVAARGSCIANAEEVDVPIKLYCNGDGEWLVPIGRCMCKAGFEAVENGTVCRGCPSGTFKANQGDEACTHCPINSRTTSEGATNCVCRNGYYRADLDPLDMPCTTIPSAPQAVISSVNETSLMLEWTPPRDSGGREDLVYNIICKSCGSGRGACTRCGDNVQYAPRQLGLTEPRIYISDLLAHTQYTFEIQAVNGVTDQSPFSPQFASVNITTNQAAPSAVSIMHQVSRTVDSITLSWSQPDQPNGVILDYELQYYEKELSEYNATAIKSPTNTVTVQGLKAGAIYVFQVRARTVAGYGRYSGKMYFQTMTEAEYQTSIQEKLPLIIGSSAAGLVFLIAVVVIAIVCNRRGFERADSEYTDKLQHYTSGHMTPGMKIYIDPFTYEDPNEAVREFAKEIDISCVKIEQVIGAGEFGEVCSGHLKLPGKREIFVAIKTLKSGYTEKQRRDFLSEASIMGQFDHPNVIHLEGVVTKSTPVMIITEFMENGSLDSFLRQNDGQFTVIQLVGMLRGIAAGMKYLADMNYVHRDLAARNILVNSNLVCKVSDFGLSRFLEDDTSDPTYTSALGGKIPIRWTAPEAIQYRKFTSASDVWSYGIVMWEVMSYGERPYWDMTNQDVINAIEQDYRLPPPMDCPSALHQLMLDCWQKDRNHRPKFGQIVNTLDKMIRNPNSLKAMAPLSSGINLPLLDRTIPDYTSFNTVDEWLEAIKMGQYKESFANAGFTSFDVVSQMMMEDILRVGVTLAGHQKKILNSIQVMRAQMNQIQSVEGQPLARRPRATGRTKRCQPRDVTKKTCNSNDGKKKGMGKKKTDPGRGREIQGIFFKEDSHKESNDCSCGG

[10] = biological target: Prostaglandin G/H synthase 2 (Homo sapiens, UniProt P35354); assay: Selectivity interaction (COX-2 assay, human recombinant ) EUB0000877a PTGS2

Cyclin-dependent kinase 11B (Homo sapiens), sequence (P21127 whole entry): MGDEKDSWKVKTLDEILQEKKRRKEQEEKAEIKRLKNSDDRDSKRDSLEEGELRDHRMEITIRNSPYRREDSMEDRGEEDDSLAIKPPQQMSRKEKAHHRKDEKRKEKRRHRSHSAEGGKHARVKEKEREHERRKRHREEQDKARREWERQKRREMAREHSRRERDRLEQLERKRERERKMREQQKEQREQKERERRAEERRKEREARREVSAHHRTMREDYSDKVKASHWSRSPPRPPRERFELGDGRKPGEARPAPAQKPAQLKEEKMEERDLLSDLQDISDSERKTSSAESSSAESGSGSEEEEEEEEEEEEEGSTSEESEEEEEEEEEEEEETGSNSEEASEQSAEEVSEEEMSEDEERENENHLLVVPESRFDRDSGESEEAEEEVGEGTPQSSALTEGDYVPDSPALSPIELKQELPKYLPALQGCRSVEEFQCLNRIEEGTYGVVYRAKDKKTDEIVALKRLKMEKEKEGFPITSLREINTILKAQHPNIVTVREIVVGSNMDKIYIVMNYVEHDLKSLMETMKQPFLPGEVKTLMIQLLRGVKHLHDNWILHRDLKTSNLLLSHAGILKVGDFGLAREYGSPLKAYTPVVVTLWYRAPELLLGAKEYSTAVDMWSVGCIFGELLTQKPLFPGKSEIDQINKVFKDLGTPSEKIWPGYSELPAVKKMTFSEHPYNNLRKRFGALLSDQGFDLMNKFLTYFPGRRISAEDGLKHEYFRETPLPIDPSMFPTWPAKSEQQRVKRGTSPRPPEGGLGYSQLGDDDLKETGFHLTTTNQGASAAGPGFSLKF
Serine/threonine-protein kinase PLK3, sequence (Q9H4B4 whole entry, looked up): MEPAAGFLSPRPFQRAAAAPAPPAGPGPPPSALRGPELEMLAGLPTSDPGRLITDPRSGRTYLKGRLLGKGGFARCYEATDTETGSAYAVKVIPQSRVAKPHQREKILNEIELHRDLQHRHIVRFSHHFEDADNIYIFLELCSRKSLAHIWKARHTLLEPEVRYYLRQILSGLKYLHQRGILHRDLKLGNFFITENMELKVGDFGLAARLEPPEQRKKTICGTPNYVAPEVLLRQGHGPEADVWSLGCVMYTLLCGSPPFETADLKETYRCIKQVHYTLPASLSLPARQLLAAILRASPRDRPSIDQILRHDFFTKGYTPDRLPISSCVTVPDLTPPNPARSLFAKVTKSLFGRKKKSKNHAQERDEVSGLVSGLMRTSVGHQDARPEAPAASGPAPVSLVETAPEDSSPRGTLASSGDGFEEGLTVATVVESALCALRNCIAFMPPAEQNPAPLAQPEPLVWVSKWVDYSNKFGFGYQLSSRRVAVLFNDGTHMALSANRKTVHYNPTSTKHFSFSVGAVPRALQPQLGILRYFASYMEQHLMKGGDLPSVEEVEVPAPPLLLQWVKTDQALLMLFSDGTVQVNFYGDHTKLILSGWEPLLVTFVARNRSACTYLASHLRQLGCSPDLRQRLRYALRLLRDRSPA
Phosphatidylinositol 4-phosphate 5-kinase type-1 alpha (Homo sapiens), sequence (Q99755 whole entry): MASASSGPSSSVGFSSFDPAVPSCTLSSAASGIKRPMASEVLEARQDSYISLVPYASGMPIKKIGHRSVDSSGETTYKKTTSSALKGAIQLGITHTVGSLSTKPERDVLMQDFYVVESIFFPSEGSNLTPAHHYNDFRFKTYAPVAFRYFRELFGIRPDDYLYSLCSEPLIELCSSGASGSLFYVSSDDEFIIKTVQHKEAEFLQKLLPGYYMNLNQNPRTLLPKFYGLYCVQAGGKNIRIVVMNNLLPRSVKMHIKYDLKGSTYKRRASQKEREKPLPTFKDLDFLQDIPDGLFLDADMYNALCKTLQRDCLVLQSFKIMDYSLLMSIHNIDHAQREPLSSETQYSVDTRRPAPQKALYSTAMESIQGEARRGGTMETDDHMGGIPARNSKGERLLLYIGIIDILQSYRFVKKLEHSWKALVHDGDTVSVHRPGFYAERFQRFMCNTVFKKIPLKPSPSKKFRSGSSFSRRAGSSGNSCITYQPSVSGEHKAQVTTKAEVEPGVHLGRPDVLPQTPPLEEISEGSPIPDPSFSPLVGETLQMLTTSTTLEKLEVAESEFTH
Histone acetyltransferase p300 (Homo sapiens), sequence (Q09472 whole entry): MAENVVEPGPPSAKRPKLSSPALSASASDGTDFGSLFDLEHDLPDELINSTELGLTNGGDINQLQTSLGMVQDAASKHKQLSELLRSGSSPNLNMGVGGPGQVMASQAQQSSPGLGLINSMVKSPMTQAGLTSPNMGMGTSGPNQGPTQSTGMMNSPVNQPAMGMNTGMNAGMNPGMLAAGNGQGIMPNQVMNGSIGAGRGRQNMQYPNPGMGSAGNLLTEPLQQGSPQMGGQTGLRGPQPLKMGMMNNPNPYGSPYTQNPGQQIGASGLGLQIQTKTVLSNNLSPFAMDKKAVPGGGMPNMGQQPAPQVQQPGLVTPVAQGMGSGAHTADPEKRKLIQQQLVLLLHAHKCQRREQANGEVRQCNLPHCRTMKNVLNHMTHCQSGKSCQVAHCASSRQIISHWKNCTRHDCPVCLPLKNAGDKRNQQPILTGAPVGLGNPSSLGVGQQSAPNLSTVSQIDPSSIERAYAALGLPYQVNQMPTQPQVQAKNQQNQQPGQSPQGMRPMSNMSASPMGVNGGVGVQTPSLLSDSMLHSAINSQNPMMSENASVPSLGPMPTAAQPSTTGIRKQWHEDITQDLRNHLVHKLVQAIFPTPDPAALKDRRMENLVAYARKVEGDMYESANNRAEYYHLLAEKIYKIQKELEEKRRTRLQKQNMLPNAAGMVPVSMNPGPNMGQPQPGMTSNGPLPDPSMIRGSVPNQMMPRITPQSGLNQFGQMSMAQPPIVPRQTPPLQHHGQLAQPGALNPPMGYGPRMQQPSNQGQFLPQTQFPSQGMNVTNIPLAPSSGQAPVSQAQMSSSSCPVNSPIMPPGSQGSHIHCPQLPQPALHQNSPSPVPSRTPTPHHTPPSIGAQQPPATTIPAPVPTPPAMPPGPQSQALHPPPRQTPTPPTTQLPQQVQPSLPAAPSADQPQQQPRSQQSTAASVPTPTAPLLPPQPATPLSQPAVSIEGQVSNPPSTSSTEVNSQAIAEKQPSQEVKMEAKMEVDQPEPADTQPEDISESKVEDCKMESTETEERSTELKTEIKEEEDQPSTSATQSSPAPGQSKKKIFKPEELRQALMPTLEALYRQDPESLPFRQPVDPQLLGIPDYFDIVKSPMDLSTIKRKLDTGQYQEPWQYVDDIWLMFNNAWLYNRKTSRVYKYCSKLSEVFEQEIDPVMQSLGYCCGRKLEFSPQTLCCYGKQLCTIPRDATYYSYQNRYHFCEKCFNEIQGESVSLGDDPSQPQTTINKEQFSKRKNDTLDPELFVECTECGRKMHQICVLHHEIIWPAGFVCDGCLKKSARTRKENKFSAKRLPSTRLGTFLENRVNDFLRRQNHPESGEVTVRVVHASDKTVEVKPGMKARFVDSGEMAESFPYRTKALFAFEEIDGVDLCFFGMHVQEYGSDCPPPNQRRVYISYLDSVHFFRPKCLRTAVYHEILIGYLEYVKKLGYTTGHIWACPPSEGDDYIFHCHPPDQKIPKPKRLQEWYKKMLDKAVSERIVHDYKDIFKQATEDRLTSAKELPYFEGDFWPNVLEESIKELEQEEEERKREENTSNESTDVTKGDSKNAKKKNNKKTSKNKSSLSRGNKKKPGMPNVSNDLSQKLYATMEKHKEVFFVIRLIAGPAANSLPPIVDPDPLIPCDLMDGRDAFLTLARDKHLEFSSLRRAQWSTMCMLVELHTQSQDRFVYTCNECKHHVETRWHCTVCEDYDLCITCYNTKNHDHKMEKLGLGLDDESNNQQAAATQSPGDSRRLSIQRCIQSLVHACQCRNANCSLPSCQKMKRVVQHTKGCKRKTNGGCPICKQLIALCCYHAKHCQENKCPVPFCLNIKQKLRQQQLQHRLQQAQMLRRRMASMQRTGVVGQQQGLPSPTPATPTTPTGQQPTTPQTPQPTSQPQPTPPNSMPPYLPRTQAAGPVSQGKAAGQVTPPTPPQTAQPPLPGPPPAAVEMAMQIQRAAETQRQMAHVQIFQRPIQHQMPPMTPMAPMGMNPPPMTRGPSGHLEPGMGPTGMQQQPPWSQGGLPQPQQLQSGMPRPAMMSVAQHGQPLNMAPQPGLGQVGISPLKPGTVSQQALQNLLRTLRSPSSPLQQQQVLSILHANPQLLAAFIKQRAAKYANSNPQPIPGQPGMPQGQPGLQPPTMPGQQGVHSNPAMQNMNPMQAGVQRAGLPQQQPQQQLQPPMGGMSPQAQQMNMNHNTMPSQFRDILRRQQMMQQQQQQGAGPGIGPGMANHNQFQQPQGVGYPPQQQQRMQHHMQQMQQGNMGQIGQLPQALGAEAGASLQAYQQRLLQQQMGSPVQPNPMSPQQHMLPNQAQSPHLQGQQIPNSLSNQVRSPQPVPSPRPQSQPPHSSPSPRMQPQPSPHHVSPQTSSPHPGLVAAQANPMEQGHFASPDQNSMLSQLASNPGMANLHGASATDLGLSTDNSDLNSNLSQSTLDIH
Tyrosine-protein kinase Fyn (Homo sapiens), sequence (P06241 2-537 limits assumed): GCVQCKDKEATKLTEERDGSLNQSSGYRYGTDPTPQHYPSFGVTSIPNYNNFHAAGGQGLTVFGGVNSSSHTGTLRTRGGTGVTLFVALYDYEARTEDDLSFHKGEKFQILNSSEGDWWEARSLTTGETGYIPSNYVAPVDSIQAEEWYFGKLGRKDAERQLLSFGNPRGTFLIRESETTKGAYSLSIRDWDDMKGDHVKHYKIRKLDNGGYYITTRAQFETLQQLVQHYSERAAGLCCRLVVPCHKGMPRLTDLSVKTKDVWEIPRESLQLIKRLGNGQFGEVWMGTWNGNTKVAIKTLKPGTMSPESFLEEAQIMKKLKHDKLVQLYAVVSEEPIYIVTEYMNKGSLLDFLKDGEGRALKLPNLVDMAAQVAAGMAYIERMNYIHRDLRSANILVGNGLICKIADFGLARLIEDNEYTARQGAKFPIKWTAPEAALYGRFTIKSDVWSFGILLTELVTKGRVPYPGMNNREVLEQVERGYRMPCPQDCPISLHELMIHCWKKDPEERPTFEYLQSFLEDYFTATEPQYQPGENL

% of control [1]: 100%
Structure (SMILES): CCN(CC)CCCCNc1ncc2cc(-c3cc(OC)cc(OC)c3)c(NC(=O)NC(C)(C)C)nc2n1

Structure (SMILES): Nc1cnc(N2CCc3cc(S(=O)(=O)Nc4c(F)cc(Cl)cc4F)cc(N4CCCC4=O)c32)nc1 [TP-020n]
% of control [2]: 100%

Structure (SMILES): CNC(=O)Nc1ccc(-c2nc(N3CC4CCC(C3)O4)c3cnn(C4CCC5(CC4)OCCO5)c3n2)cc1
% of inhibition [3]: -11%

Structure (SMILES): N#Cc1cccc(-c2c[nH]c3ncnc(N4CCOCC4)c23)c1
% of control [4]: 4.8%

Structure (SMILES): C=CC(=O)Nc1cc(-n2c(=O)ccc3cnc4ccc(-c5ccc(NS(C)(=O)=O)cc5)cc4c32)ccc1C
% of control ([5]; at 1 µM): 100% | % of control ([5]; at 10 µM): 99%

% of inhibition [6]: 24% | % of inhibition [7]: 99%
Structure (SMILES): Cc1ccc(-c2ccc3c(ccc4sc5c(c43)NC[C@@H](C)NC5=O)n2)cn1

dTM [8]: -1.45 K
Structure (SMILES): Cc1cc(CN)cc(C)c1-c1ncn(C)c1-c1cncn1C

Structure (SMILES): COc1cc(N(C)c2ccnc3ccc(C(F)(F)F)cc23)cc(OC)c1OC
% binding [9]: 93%

IC50 [10]: > 30 µM
Structure (SMILES): CCC(=O)N1CC[C@H](Nc2ncnc3c2CN(c2cnc(OC)c(C(F)(F)F)c2)CC3)C1 [LENIOLISIB]
